Assay results taken from patent US20240148713A1 (INDUSTRY-ACADEMIC COOPERATION FOUNDATION, YONSEI UNIVERSITY, priority 2021, published 2024).

Key:
[1] = tested on: lung fibrosis lung fibroblasts; details: cited from earlier work
[2] = tested on: human colonic myofibroblasts; details: cited from earlier work
HS746T cell line [3] = experiment: CCK-8 assay, MRTF A inhibitor and cisplatin alone or in combination; type: cell-based, human; details: 5 μg/ml inhibitor, after 24 hours 5 μM cisplatin, CCK-8 24 hours later, FIG. 8
Experimental: In the same manner as described above, 5 μg/ml CCG-232601, CCG-203971 or CCG-222740 was first administered to the HS746T cell line, and after 24 hours, 5 μM cisplatin (CDDP) was administered to the cell line, and 24 hours after administration of CDDP, a CCK-8 assay was performed using a cell viability assay kit.

[4] = tested on: murine model of skin injury; details: cited from earlier work
[5] = tested on: preclinical fibrosis model; details: cited from earlier work
[6] = tested on: alpha smooth muscle actin protein; details: cited from earlier work
HS746T [7] = experiment: Cell viability (CCK-8), treatment alone, Example 1; type: cell-based, human; details: HS746T stem-like cell line, different concentrations, 48 hours, FIG. 1
Experimental: (§1) In order to evaluate the ability to inhibit the growth or metastasis of cancer cell lines or cancer stem cell lines in Examples of the present invention, the present inventors obtained the cell lines MKN1 and HS746T having human gastric cancer stem cell characteristics, and the human gastric cancer cell lines SNU601, YCC7 and NCIN87, from the American Type Culture Collection (ATCC) and the Korean Cell Line Bank (KCRB). The cell lines were cultured in different culture media under different culture conditions according to the ATCC or KCRB guides. The MKN1, SNU601, and NCIN87 cell lines were cultured in RPMI1640 media containing 10% fetal bovine serum (FBS), 2 mM L-glutamine, 100 U/ml penicillin and 100 μg/ml streptomycin, and the HS746T and YCC7 cell lines were cultured in DMEM media containing 10% FBS, 2 mM L-glutamine, 100 U/ml penicillin and 100 μg/ml streptomycin. All the cell lines were cultured at 37° C. under 5% CO2, and mycoplasma contamination tests were performed.
(§2) The cell lines cultured in the Preparation Example were seeded into well plates at a density of 1×10^4 cells per well, and cultured overnight at 37° C. under 5% CO2. Next, each of the gastric cancer stem-like cell lines HS746T and MKN1 and the gastric cancer cell lines YCC7 and NCIN87 was treated with different concentrations of each of the anticancer drug cisplatin (CDDP), which is currently widely used in the treatment of gastric cancer patients, and the MRTF A inhibitor CCG-232601 compound, and after 48 hours, the number of cells was counted and the results are shown in FIG. 1. 100 μL of each cell culture and 10 μL of reaction buffer (CCK) were mixed together, placed in a 96-well plate, incubated for 1 hour at room temperature, and then measured for absorbance at a wavelength of 450 nm using a spectrophotometer (Synergy HTX Multi-Reader, BioTek, Winooski, VT, USA). At the same time, the number of cells in each sample was counted using a cell viability assay kit (Cell Counting Kit-8), and the counted value was expressed relative to the cell number of the negative control group so that the same cell number in each cell could be compared with the cell number of the negative control group. The experimental results are shown as the mean values of the repeated experiments.

YCC7 = experiment: Cell viability (CCK-8), treatment alone, Example 1; type: cell-based, human; details: YCC7 gastric cancer cell line, different concentrations, 48 hours, FIG. 1
Experimental: as §1, §2

MKN1 [8] = experiment: Cell viability (CCK-8), treatment alone, Example 1; type: cell-based, human; details: MKN1 stem-like cell line, different concentrations, 48 hours, FIG. 1
Experimental: as §1, §2

NCIN87 = experiment: Cell viability (CCK-8), treatment alone, Example 1; type: cell-based, human; details: NCIN87 gastric cancer cell line, different concentrations, 48 hours, FIG. 1
Experimental: as §1, §2

HS746T [9] = experiment: Transwell invasion assay; type: cell-based, human; details: 10 μg/ml, 12 hours, matrigel transwell, FIG. 3
Experimental: (§3) Transwell invasion assay was performed with or without CCG-232601 treatment. Invasion ability was measured using a 6.5-mm transwell with an 8.0 μm-pore polycarbonate membrane insert (Corning) after coating with matrigel (Corning) diluted with serum-free medium to 0.67 μg/μl. Then, 2×10^4 cells per well were suspended in 200 μl of serum-free medium with vehicle or 10 μg/ml CCG-232601, and 1,000 μl of culture medium containing 10% FBS was added to the lower chamber. After 12 hours, the transferred cells were stained with 0.2% crystal violet and observed under an optical microscope. The average number of cells penetrating the membrane was counted with ImageJ (NIH) in three randomly selected high-power fields and two independent experiments, and the results are shown in FIG. 3.

MKN1 [10] = experiment: Transwell invasion assay; type: cell-based, human; details: MKN1, 10 μg/ml, 12 hours, matrigel transwell, FIG. 3
Experimental: as §3

HS746T [11] = experiment: Oxygen consumption rate (OCR) and extracellular acidification rate (ECAR), extracellular flux analyzer; type: cell-based, human
Experimental: (§4) In particular, in order to confirm that the CCG-232601 compound has an excellent inhibitory effect against the growth of cancer stem cells, the oxygen consumption rate (OCR) and extracellular acidification rate (ECAR) of the stern-like cell lines HS746T and MKN1 having high resistance to metabolic stress were measured and the results are FIG. 2. More specifically, each of the cell lines was inoculated at a confluency of 70 to 80% in Seahorse normal culture medium, and oxygen consumption rate (OCR, pmol/min/μg protein) and extracellular acidification rate (ECAR, mpH/min/μg protein) were analyzed using an XF96 or XFp extracellular flux analyzer (Agilent) to determine mitochondrial oxidation and glycolysis levels. Mitochondrial oxidation ability of the cells pretreated for 1 hour with or without 10 mM β-HB (Sigma) was evaluated using the Seahorse XF Mito Stress Kit (Agilent). To overcome changes in oxidation and glycolysis processes upon treatment with CCG-232601, the cells were pretreated overnight with vehicle or the inhibitor, and finally 10 mM β-hydroxybutyrate was added upon the first injection.

MKN1 [12] = experiment: as above; type: cell-based, human
Experimental: as §4

HS746T cell line [13] = experiment: CCK-8 assay, CCG-232601 and oxaliplatin alone or in combination; type: cell-based, human
Experimental: In order to examine whether the co-administration of the compound CCG-232601 is also effective in improving drug sensitivity to other platinum-based anticancer drugs of the same family as cisplatin, the survival and growth inhibitory effects upon administration of CCG-232601 and oxaliplatin alone or in combination to the HS746T cell line were evaluated using a cell viability assay kit (Cell Counting Kit-8; CCK-8). Unlike administration alone, to evaluate the effect of co-administration, 5 μg/ml CCG-232601 was first administered to the HS746T cell line, and 24 hours after administration of CCG-232601, 24 μg/ml oxaliplatin was administered to the cell line, and 24 hours after administration of oxaliplatin, CCK-8 assay was performed using a cell viability assay kit.

[14] = tested on: bleomycin-induced dermal fibrosis; details: administered orally to mice; cited from earlier work
MKN1 cell line = experiment: CCK-8 assay, CCG-232601 and cisplatin alone or in combination; type: cell-based, human; details: FIG. 6
Experimental: Accordingly, in order to evaluate the effect of co-administration of the compound CCG-232601, the survival and growth inhibitory effects upon administration of cisplatin (CDDP) and CCG-232601 alone or in combination to the MKN1 cell line were evaluated using a cell viability assay kit (Cell Counting Kit-8; CCK-8). Unlike administration alone, to evaluate the effect of co-administration, 5 μg/ml CCG-232601 was first administered to the MKN1 cell line, and 24 hours after administration of CCG-232601, 5 μM cisplatin (CDDP) was administered to the cell line, and 24 hours after administration of CDDP, CCK-8 assay was performed using a cell viability assay kit.

HS746T [15] = experiment: Drug sensitivity upon treatment with cisplatin (CDDP); type: cell-based, human
Experimental: (§5) Drug sensitivity upon treatment with cisplatin (CDDP) was measured in the gastric cancer cell lines SNU601 and NCIN87 and the cell lines HS746T and MKN1 having gastric cancer stem cell-like characteristics, and the results are shown in FIG. 3.

MKN1 [16] = experiment: as above; type: cell-based, human
Experimental: as §5

O=C(Nc1ccc(Cl)cc1)C1CCCN(C(=O)c2cccc(-c3ccco3)c2)C1 (centres unmarked) [CCG-203971, N-(4-chlorophenyl)-1-(3-(furan-2-yl)benzoyl)piperidine-3-carboxamide]
antifibrotic activity [1]: shows antifibrotic activity
matrix stiffness and TGF-β-mediated fibrogenesis [2]: represses
drug sensitivity to cisplatin in combination versus cisplatin alone (HS746T cell line [3]): drug sensitivity was improved
antifibrotic activity [4]: shows antifibrotic activity

O=C(Nc1ccc(Cl)cc1)C1CN(C(=O)c2cccc(-c3ccco3)c2)CC(F)(F)C1 (centres unmarked) [CCG-222740, N-(4-chlorophenyl)-5,5-difluoro-1-(3-(furan-2-yl)benzoyl)piperidine-3-carboxamide]
scar tissue formation [5]: effectively prevent scar tissue formation
expression of alpha smooth muscle actin protein [6]: prevent the expression
drug sensitivity to cisplatin in combination versus cisplatin alone (HS746T cell line [3]): drug sensitivity was improved

O=C(Nc1ccc(Cl)cc1)C1CN(C(=O)c2cccc(-c3ccncc3)c2)CC(F)(F)C1 (centres unmarked) [CCG-232601, N-(4-chlorophenyl)-5,5-difluoro-1-(3-(pyridin-4-yl)benzoyl)piperidine-3-carboxamide]
antitumor effect (cell number relative to negative control) (HS746T [7]): exhibited antitumor effects
antitumor effect (cell number relative to negative control) (YCC7): exhibited antitumor effects
antitumor effect (cell number relative to negative control) (MKN1 [8]): exhibited antitumor effects
antitumor effect (cell number relative to negative control) (NCIN87): exhibited antitumor effects
invasion and metastasis (cells penetrating the membrane) (HS746T [9]): reduced the invasion and metastasis
invasion and metastasis (cells penetrating the membrane) (MKN1 [10]): reduced the invasion and metastasis
susceptibility to glucose deprivation (HS746T [11]; conclusion from OCR/ECAR results): greatly increased the susceptibility
glycolytic ECAR versus OCR (mitochondrial respiration) (HS746T [11]; pretreated overnight with inhibitor, FIG. 2): ECAR was higher than the OCR
susceptibility to glucose deprivation (MKN1 [12]; MKN1, conclusion from OCR/ECAR results): greatly increased the susceptibility
glycolytic ECAR versus OCR (mitochondrial respiration) (MKN1 [12]; MKN1, pretreated overnight with inhibitor, FIG. 2): ECAR was higher than the OCR
drug sensitivity to cisplatin in combination versus cisplatin alone (HS746T cell line [3]): drug sensitivity was improved
cytotoxicity at 5 µg/mL (HS746T cell line [13]; Homo sapiens, 5 μg/ml CCG-232601, after 24 hours 24 μg/ml oxaliplatin, CCK-8 24 hours later, FIG. 7, read-out: reduction of cell viability compared to oxaliplatin alone): ≥ 20%
growth of the cancer stem-like cells, administered alone (HS746T cell line [13]; administered alone, FIG. 7): reduced the growth
development of bleomycin-induced dermal fibrosis [14]: suppress the development
reduction of cell viability (MKN1 cell line; MKN1, administered alone, compared to negative control group and cisplatin-alone group): 20%

N.N.[Cl][Pt][Cl] [cisplatin]
antitumor effect (cell number relative to negative control) (HS746T [7]): exhibited significantly improved antitumor effects
antitumor effect (cell number relative to negative control) (MKN1 [8]): exhibited significantly improved antitumor effects
effect on cell viability, administered alone (MKN1 cell line; MKN1, cisplatin alone): drug resistance
drug sensitivity lower than that of the cancer cell lines (HS746T [15]; HS746T versus SNU601 and NCIN87, FIG. 4): 20 to 40%
resistance of the cell line to cisplatin (HS746T [15]; HS746T, FIG. 4): showed resistance
resistance of the cell line to cisplatin (MKN1 [16]; MKN1, FIG. 4): showed resistance
drug sensitivity lower than that of the cancer cell lines (MKN1 [16]; MKN1 versus SNU601 and NCIN87, FIG. 4): 20 to 40%
